This experiment deals with T1, GST-Xa-hAAK1 (Homo sapiens, UniProt Q2M2I8).
T1 construct: GST (N); Factor Xa cleavage site (Xa) (internal); made in house
Briefly: AAK1 Kinase Assay. Conditions: bacterially expressed GST-Xa-hAAK1 3.5 nM; ATP 22 μM; fluoresceinated peptide 1.5 μM; 3 hours at room temperature; Caliper LabChip 3000. The experiment is classed as biochemical. How it is done: The assays were performed in U-bottom 384-well plates. The final assay volume was 30 μl prepared from 15 μl additions of enzyme and substrates (fluoresceinated peptide (5-FAM)-Aha-[…]-NH2 and ATP) and test compounds in assay buffer (10 mM Tris-HCL pH 7.4, 10 mM MgCl2, 0.01% Tween-20 and 1.0 mM DTT). The reactions were initiated by the combination of bacterially expressed, GST-Xa-hAAK1 with substrates and test compounds. The reactions were incubated at room temperature for 3 hours and terminated by adding 60 μl of 35 mM EDTA buffer to each sample. The reactions were analyzed on the Caliper LabChip 3000 (Caliper, Hopkinton, Mass.) by electrophoretic separation of the fluorescent substrate and phosphorylated product. […] The final concentration of reagents in the assays are ATP, 22 μM; (5-FAM)-Aha-[…]-NH2, 1.5 μM; GST-Xa-hAAK1, 3.5 nM; and DMSO, 1.6%. […] Compounds were dissolved at 10 mM in dimethylsulfoxide (DMSO) and evaluated at eleven concentrations. IC50 values were derived by non-linear regression analysis.

T1 sequence (Q2M2I8 whole entry): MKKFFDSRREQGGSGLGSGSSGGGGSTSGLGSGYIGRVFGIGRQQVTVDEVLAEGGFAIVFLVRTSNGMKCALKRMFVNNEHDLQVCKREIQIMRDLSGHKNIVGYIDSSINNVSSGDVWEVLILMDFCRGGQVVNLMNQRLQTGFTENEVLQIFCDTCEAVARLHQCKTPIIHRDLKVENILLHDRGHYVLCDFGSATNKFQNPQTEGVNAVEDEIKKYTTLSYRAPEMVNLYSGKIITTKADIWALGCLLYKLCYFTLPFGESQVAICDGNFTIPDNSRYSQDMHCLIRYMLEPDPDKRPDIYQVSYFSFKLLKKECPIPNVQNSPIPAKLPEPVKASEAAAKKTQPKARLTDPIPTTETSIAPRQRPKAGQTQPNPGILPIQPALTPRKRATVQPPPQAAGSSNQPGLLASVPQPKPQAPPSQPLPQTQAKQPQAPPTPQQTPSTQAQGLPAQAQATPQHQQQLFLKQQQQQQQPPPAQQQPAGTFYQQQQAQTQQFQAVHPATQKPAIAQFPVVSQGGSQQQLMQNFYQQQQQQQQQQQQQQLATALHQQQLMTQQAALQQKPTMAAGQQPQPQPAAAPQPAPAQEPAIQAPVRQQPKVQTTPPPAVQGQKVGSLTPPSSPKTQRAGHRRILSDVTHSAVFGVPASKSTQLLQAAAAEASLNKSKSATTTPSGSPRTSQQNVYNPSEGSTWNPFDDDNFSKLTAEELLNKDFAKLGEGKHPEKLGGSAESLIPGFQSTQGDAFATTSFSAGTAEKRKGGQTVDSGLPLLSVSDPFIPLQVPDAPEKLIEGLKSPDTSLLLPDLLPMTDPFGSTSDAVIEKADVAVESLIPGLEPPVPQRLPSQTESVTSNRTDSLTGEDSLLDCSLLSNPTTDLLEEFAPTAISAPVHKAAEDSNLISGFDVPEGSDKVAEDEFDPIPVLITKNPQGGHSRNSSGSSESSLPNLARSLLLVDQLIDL

In the case of `CC(C)C[C@](C)(N)COc1ccc(-c2ccnc(NC3CCCOC3)c2)cc1Cl` (mixture of isomers) [Example 338, 4-(4-(((S)-2-amino-2,4-dimethylpentyl)oxy)-3-chlorophenyl)-N-(tetrahydro-2H-pyran-3-yl)pyridin-2-amine], the IC50 – broadly, the concentration that gives 50% inhibition – turned out to be 35 nM. Then `CC(C)C[C@](C)(N)COc1ccc(-c2ccnc(NC3CCCOC3)c2)cc1C(F)(F)F` (mixture of isomers) [Example 475, 4-(4-((S)-2-amino-2,4-dimethylpentyloxy)-3-(trifluoromethyl)phenyl)-N-(tetrahydro-2H-pyran-3-yl)pyridin-2-amine], with 15 nM.

For `CC(C)C[C@](C)(N)COc1ccc(-c2ccnc(NC3CCCOC3)c2)cc1Cl` (single isomer, unassigned) [Example 339], the IC50 was found to be 17 nM. For `CC(C)C[C@](C)(N)COc1ccc(-c2ccnc(NC3CCCOC3)c2)cc1Cl` (single isomer, unassigned) [Example 340], the IC50 was 110 nM. Then `CC(C)C[C@](C)(N)COc1ccc(-c2ccnc(NC3CCCOC3)c2)cc1C(F)(F)F` (single isomer, unassigned) [Example 476], with 125 nM; and `CC(C)C[C@](C)(N)COc1ccc(-c2ccnc(NC3CCCOC3)c2)cc1C(F)(F)F` (single isomer, unassigned) [Example 477], with 50 nM.

Take `Cc1n[nH]c(C)c1-c1ccc(OC[C@@](C)(N)CC(C)C)c(F)c1` [Example 251, (S)-1-(4-(3,5-dimethyl-1H-pyrazol-4-yl)-2-fluorophenoxy)-2,4-dimethylpentan-2-amine]: the IC50 amounted to 310 nM. In the case of `Cc1nc2nccc(-c3ccc(OC[C@@](C)(N)CC(C)C)c(C#N)c3)c2nc1C` [Example 252, (S)-2-((2-amino-2,4-dimethylpentyl)oxy)-5-(2,3-dimethylpyrido[2,3-b]pyrazin-8-yl)benzonitrile] it was 285 nM; in that of `CC(C)C[C@](C)(N)COc1ccc(-c2ccnc3nccnc23)cc1F` [Example 253, (S)-1-(2-fluoro-4-(pyrido[2,3-b]pyrazin-8-yl)phenoxy)-2,4-dimethylpentan-2-amine], 537 nM.

Consider `CC(C)C[C@](C)(N)COc1ccc(-c2ccnc3[nH]c(N)nc23)cc1C#N` [Example 254, (S)-2-((2-amino-2,4-dimethylpentyl)oxy)-5-(2-amino-3H-imidazo[4,5-b]pyridin-7-yl)benzonitrile], for which the IC50 worked out at 22 nM. Regarding `CC(C)C[C@](C)(N)COc1ccc(-c2ccnc3[nH]c(N)nc23)cc1C(F)(F)F` [Example 255, (S)-7-(4-((2-amino-2,4-dimethylpentyl)oxy)-3-(trifluoromethyl)phenyl)-3H-imidazo [4,5-b]pyridin-2-amine], the IC50 is 42 nM. In the case of `CC(C)C[C@](C)(N)COc1ccc(-c2ccnc(Nc3nccs3)c2)cc1C(F)(F)F` [Example 256, (S)—N-(4-(4-((2-amino-2,4-dimethylpentyl)oxy)-3-(trifluoromethyl)phenyl)pyridin-2-yl)thiazol-2-amine] it was 0.82 nM. With `CC(C)C[C@](C)(N)COc1ccc(-c2ccnc(Nc3nccs3)c2)cc1Cl` [Example 257, (S)—N-(4-(4-((2-amino-2,4-dimethylpentyl)oxy)-3-chlorophenyl)pyridin-2-yl)thiazol-2-amine], the IC50 came to 0.45 nM. Then `CC(C)C[C@](C)(N)COc1ccc(-c2ccnc(NC(=O)c3nccs3)c2)cc1C(F)(F)F` [Example 258, (S)—N-(4-(4-((2-amino-2,4-dimethylpentyl)oxy)-3-(trifluoromethyl)phenyl)pyridin-2-yl)thiazole-2-carboxamide], with 0.47 nM; and `Cc1cc(-c2ccnc3[nH]c(N)nc23)ccc1OC[C@@](C)(N)CC(C)C` [Example 259, (S)-7-(4-((2-amino-2,4-dimethylpentyl)oxy)-3-methylphenyl)-3H-imidazo[4,5-b]pyridin-2-amine], with 229 nM; and `CC(C)C[C@](C)(N)COc1ccc(-c2ccnc(NC(=O)c3nccs3)c2)cc1Cl` [Example 260, (S)—N-(4-(4-((2-amino-2,4-dimethylpentyl)oxy)-3-chlorophenyl)pyridin-2-yl)thiazole-2-carboxamide], with 0.48 nM. Then `CC(C)C[C@](C)(N)COc1ccc(-c2ccnc(NC(=O)c3nccs3)c2)cc1C#N` [Example 261, (S)—N-(4-(4-((2-amino-2,4-dimethylpentyl)oxy)-3-cyanophenyl)pyridin-2-yl)thiazole-2-carboxamide], with 0.36 nM; and `Cc1csc(Nc2cc(-c3ccc(OC[C@@](C)(N)CC(C)C)c(Cl)c3)ccn2)n1` [Example 262, (S)—N-(4-(4-((2-amino-2,4-dimethylpentyl)oxy)-3-chlorophenyl)pyridin-2-yl)-4-methylthiazol-2-amine], with 1.9 nM.

For the molecule `Cc1cc(-c2ccnc3ccnn23)cnc1OC[C@](C)(N)CC(C)C` [Example 264, (R)-2,4-dimethyl-1-((3-methyl-5-(pyrazolo[1,5-a]pyrimidin-7-yl)pyridin-2-yl)oxy)pentan-2-amine], the IC50 amounted to 79 nM.

For the molecule `CC(C)C[C@@](C)(N)COc1ncc(-c2ccnc3ccnn23)cc1Cl` [Example 265, (R)-1-((3-chloro-5-(pyrazolo[1,5-a]pyrimidin-7-yl)pyridin-2-yl)oxy)-2,4-dimethylpentan-2-amine], the IC50 worked out at 55 nM. Then `Cc1cc(-c2ccnc3cc(C4CC4)nn23)cnc1OC[C@](C)(N)CC(C)C` [Example 266, (R)-1-((5-(2-cyclopropylpyrazolo[1,5-a]pyrimidin-7-yl)-3-methylpyridin-2-yl)oxy)-2,4-dimethylpentan-2-amine], with 265 nM; and `Cc1cc(-c2ccc(OC[C@@](C)(N)CC(C)C)c3ncsc23)ccn1` [Example 267, (S)-2,4-dimethyl-1-((7-(2-methylpyridin-4-yl)benzo[d]thiazol-4-yl)oxy)pentan-2-amine], with 362 nM; and `COC(=O)Nc1cc(-c2ccc(OC[C@@](C)(N)CC(C)C)c3ncsc23)ccn1` [Example 269, (S)-methyl (4-(4-((2-amino-2,4-dimethylpentyl)oxy)benzo[d]thiazol-7-yl)pyridin-2-yl)carbamate], with 3.4 nM.

Regarding `Cc1nc2c(-c3ccc(OC[C@@](C)(N)CC(C)C)c(C(F)(F)F)c3)ncnc2s1` [Example 270, (S)-2,4-dimethyl-1-(4-(2-methylthiazolo[5,4-d]pyrimidin-7-yl)-2-(trifluoromethyl)phenoxy)pentan-2-amine], the IC50 came out at 8.4 nM. Then `Cc1nc2c(-c3ccc(OC[C@@](C)(N)CC(C)C)c(C#N)c3)ncnc2s1` [Example 271, (S)-2-((2-amino-2,4-dimethylpentyl)oxy)-5-(2-methylthiazolo[5,4-d]pyrimidin-7-yl)benzonitrile], with 4.1 nM; and `CC(C)C[C@](C)(N)COc1ncc(-c2ccnc3ccnn23)cc1Cl` [Example 272, (S)-1-((3-chloro-5-(pyrazolo[1,5-a]pyrimidin-7-yl)pyridin-2-yl)oxy)-2,4-dimethylpentan-2-amine], with 0.8 nM. Then `Cc1cc(-c2ccnc3ccnn23)cnc1OC[C@@](C)(N)CC(C)C` [Example 275, (S)-2,4-dimethyl-1-((3-methyl-5-(pyrazolo[1,5-a]pyrimidin-7-yl)pyridin-2-yl)oxy)pentan-2-amine], with 2.2 nM. Then `CC(C)C[C@](C)(N)COc1ccc(-c2ccnc3ccnn23)nc1CF` [Example 276, (S)-1-((2-(fluoromethyl)-6-(pyrazolo[1,5-a]pyrimidin-7-yl)pyridin-3-yl)oxy)-2,4-dimethylpentan-2-amine], with 0.9 nM; and `CC(C)CC(N)(CO)COc1cnc(-c2ccnc(C(F)F)c2)cc1C(F)F` (stereo not shown) [Example 277, 2-amino-2-(((2′,4-bis(difluoromethyl)-[2,4′-bipyridin]-5-yl)oxy)methyl)-4-methylpentan-1-ol], with 1.8 nM; and `CC(C)C[C@](C)(N)COc1ccc(-c2ccnn3ccnc23)cc1` [Example 281, (S)-1-(4-(imidazo[1,2-b]pyridazin-8-yl)phenoxy)-2,4-dimethylpentan-2-amine], with 3.4 nM. `Cc1nc2c(-c3ccc(OC[C@@](C)(N)CC(C)C)c(Cl)c3)ccnc2[nH]1` [Example 282, (S)-1-(2-chloro-4-(2-methyl-3H-imidazo[4,5-b]pyridin-7-yl)phenoxy)-2,4-dimethylpentan-2-amine]: the IC50 turned out to be 36 nM. In the case of `CC(C)C[C@](C)(N)COc1ccc(-c2ccnn3ccnc23)cc1C(F)(F)F` [Example 283, (S)-1-(4-(imidazo[1,2-b]pyridazin-8-yl)-2-(trifluoromethyl)phenoxy)-2,4-dimethylpentan-2-amine] it was 0.4 nM; in that of `CC(C)C[C@](C)(N)COc1ccc(-c2ccnc3[nH]ncc23)cc1Cl` [Example 284, (S)-1-(2-chloro-4-(1H-pyrazolo[3,4-b]pyridin-4-yl)phenoxy)-2,4-dimethylpentan-2-amine], 0.6 nM; in that of `CC(C)C[C@](C)(N)COc1ccc(-c2cc(Cl)nn3ccnc23)cc1C#N` [Example 286, (S)-2-((2-amino-2,4-dimethylpentyl)oxy)-5-(6-chloroimidazo[1,2-b]pyridazin-8-yl)benzonitrile], 47 nM.

The values above are taken from patent publication US10246469B2, “Biaryl kinase inhibitors” (BRISTOL-MYERS SQUIBB COMPANY, priority 2015, dated 2019).
